Data as given in ChEMBL document CHEMBL3885861, “Open TG-GATES”.

Species on record: Rattus norvegicus
Experiment: Open TG-GATES - Regimen: Single
Type: toxicity, organism-based, Sprague-Dawley
Parameters: regimen Single, gender Male, age 6 weeks
Details: in vivo, ip, 0.1 mg/kg, route intraperitoneal injection, dose 100 ug/Kg, dose level Middle; for APTT / Bas / Eos / Fbg / Hb / Ht / Lym / MCH / MCHC / MCV / Mono / Neu / PT / Plat / RBC / Ret / WBC: tissue Blood; for KIDNEY_L / KIDNEY_R / KIDNEY_TOTAL: tissue Kidney; for LIVER: tissue Liver; for A/G / ALP / ALT / AST / BUN / CRE / Ca / Cl / DBIL / GLC / IP / K / LDH / Na / PL / RALB / TBIL / TC / TG / TP / gamma-GTP: tissue Plasma

CC(=O)N[C@H]1[C@@H](O[C@@H]2O[C@H](CC(O)[C@H]3O[C@@H](n4ccc(=O)[nH]c4=O)[C@H](O)[C@@H]3O)[C@H](O)[C@H](O)[C@H]2NC(=O)/C=C/CC(C)C)O[C@H](CO)[C@@H](N)[C@@H]1O (some centres not stated) [TUNICAMYCIN]
TERMINAL_BW (3 h): 221.2 g
APTT (3 h): 23.1 s
Bas (3 h): 0%
Eos (3 h): 0.6%
Fbg (3 h): 292.6 mg/dL
Hb (3 h): 12.8 g/dL
Ht (3 h): 39.3%
Lym (3 h): 71.2%
MCH (3 h): 20.2 pg
MCHC (3 h): 32.6%
MCV (3 h): 62 fL
Mono (3 h): 3.2%
Neu (3 h): 24.2%
PT (3 h): 15.9 s
Plat (3 h): 122.6 x10_4/uL
RBC (3 h): 636.4 x10_4/ul
Ret (3 h): 8.1%
WBC (3 h): 97.2 x10_2/uL
KIDNEY_L (3 h): 0.9 g
KIDNEY_R (3 h): 0.9 g
KIDNEY_TOTAL (3 h): 1.9 g
LIVER (3 h): 10.4 g
A/G (3 h): 1.2
ALP (3 h): 1559 IU/L
ALT (3 h): 38.8 IU/L
AST (3 h): 76.8 IU/L
BUN (3 h): 13 mg/dL
CRE (3 h): 0.2 mg/dL
Ca (3 h): 10.6 mg/dL
Cl (3 h): 106.8 meq/L
DBIL (3 h): 0 mg/dL
GLC (3 h): 167.2 mg/dL
IP (3 h): 8.2 mg/dL
K (3 h): 4.2 meq/L
LDH (3 h): 158.2 IU/L
Na (3 h): 142.8 meq/L
PL (3 h): 122.8 mg/dL
RALB (3 h): 2.9 g/dL
TBIL (3 h): 0.012 mg/dL
TC (3 h): 70.4 mg/dL
TG (3 h): 70.2 mg/dL
TP (3 h): 5.3 g/dL
gamma-GTP (3 h): 1.4 IU/L
TERMINAL_BW (6 h): 216.8 g
APTT (6 h): 22.4 s
Bas (6 h): 0%
Eos (6 h): 0.4%
Fbg (6 h): 315.6 mg/dL
Hb (6 h): 13.2 g/dL
Ht (6 h): 40.1%
Lym (6 h): 67%
MCH (6 h): 21 pg
MCHC (6 h): 33%
MCV (6 h): 63.7 fL
Mono (6 h): 2%
Neu (6 h): 30%
PT (6 h): 15.7 s
Plat (6 h): 110 x10_4/uL
RBC (6 h): 630.4 x10_4/ul
Ret (6 h): 7.9%
WBC (6 h): 95.8 x10_2/uL
KIDNEY_L (6 h): 1 g
KIDNEY_R (6 h): 1 g
KIDNEY_TOTAL (6 h): 1.9 g
LIVER (6 h): 9.2 g
A/G (6 h): 1.2
ALP (6 h): 1277.4 IU/L
ALT (6 h): 39.8 IU/L
AST (6 h): 70.4 IU/L
BUN (6 h): 11 mg/dL
CRE (6 h): 0.2 mg/dL
Ca (6 h): 10.8 mg/dL
Cl (6 h): 106.2 meq/L
DBIL (6 h): 0 mg/dL
GLC (6 h): 175 mg/dL
IP (6 h): 9.3 mg/dL
K (6 h): 4.2 meq/L
LDH (6 h): 161.6 IU/L
Na (6 h): 141.4 meq/L
PL (6 h): 127.2 mg/dL
RALB (6 h): 3 g/dL
TBIL (6 h): 0.022 mg/dL
TC (6 h): 74 mg/dL
TG (6 h): 51.8 mg/dL
TP (6 h): 5.3 g/dL
gamma-GTP (6 h): 1.2 IU/L
TERMINAL_BW (9 h): 221.7 g
APTT (9 h): 23.2 s
Bas (9 h): 0%
Eos (9 h): 1%
Fbg (9 h): 305.8 mg/dL
Hb (9 h): 12.9 g/dL
Ht (9 h): 39.8%
Lym (9 h): 81%
MCH (9 h): 20.7 pg
MCHC (9 h): 32.4%
MCV (9 h): 64 fL
Mono (9 h): 2.2%
Neu (9 h): 15.4%
PT (9 h): 15.8 s
Plat (9 h): 123.1 x10_4/uL
RBC (9 h): 623 x10_4/ul
Ret (9 h): 7.8%
WBC (9 h): 86.6 x10_2/uL
KIDNEY_L (9 h): 0.9 g
KIDNEY_R (9 h): 1 g
KIDNEY_TOTAL (9 h): 1.9 g
LIVER (9 h): 9.2 g
A/G (9 h): 1.2
ALP (9 h): 1517.2 IU/L
ALT (9 h): 35.6 IU/L
AST (9 h): 71 IU/L
BUN (9 h): 12.4 mg/dL
CRE (9 h): 0.1 mg/dL
Ca (9 h): 10.9 mg/dL
Cl (9 h): 106.2 meq/L
DBIL (9 h): 0 mg/dL
GLC (9 h): 173.6 mg/dL
IP (9 h): 9.2 mg/dL
K (9 h): 4.2 meq/L
LDH (9 h): 137.4 IU/L
Na (9 h): 141.8 meq/L
PL (9 h): 124.8 mg/dL
RALB (9 h): 2.9 g/dL
TBIL (9 h): 0.014 mg/dL
TC (9 h): 70.2 mg/dL
TG (9 h): 76 mg/dL
TP (9 h): 5.3 g/dL
gamma-GTP (9 h): 1 IU/L
TERMINAL_BW (24 h): 228.5 g
APTT (24 h): 22.4 s
Bas (24 h): 0%
Eos (24 h): 0.8%
Fbg (24 h): 332.8 mg/dL
Hb (24 h): 13.3 g/dL
Ht (24 h): 41.4%
Lym (24 h): 80.6%
MCH (24 h): 19.9 pg
MCHC (24 h): 32%
MCV (24 h): 62 fL
Mono (24 h): 2.6%
Neu (24 h): 15.2%
PT (24 h): 15.8 s
Plat (24 h): 105.4 x10_4/uL
RBC (24 h): 668 x10_4/ul
Ret (24 h): 7.2%
WBC (24 h): 84.3 x10_2/uL
KIDNEY_L (24 h): 0.9 g
KIDNEY_R (24 h): 1 g
KIDNEY_TOTAL (24 h): 1.9 g
LIVER (24 h): 10.2 g
A/G (24 h): 1.2
ALP (24 h): 1529.6 IU/L
ALT (24 h): 46.2 IU/L
AST (24 h): 74.2 IU/L
BUN (24 h): 15.2 mg/dL
CRE (24 h): 0.1 mg/dL
Ca (24 h): 10.5 mg/dL
Cl (24 h): 105.4 meq/L
DBIL (24 h): 0 mg/dL
GLC (24 h): 181 mg/dL
IP (24 h): 7.3 mg/dL
K (24 h): 4.2 meq/L
LDH (24 h): 152.8 IU/L
Na (24 h): 142 meq/L
PL (24 h): 143.8 mg/dL
RALB (24 h): 3.1 g/dL
TBIL (24 h): 0.014 mg/dL
TC (24 h): 77.6 mg/dL
TG (24 h): 78.2 mg/dL
TP (24 h): 5.6 g/dL
gamma-GTP (24 h): 1.4 IU/L
